In ChEMBL document CHEMBL1132884, “Carbonic anhydrase inhibitors: synthesis of N-morpholylthiocarbonylsulfenylamino aromatic/heterocyclic sulfonamides and their interaction with isozymes I, II and IV” (Bioorg Med Chem Lett, 2000):
pKi: −log10 of the molar value.

Key:
[1] = target: Carbonic anhydrase 2 (Homo sapiens, UniProt P00918)
Description: Inhibition of human carbonic anhydrase II (hCA II)

[2] = target: T1, Carbonic anhydrase 4 (Bos taurus, UniProt Q95323)
T1 sequence (Q95323 whole entry): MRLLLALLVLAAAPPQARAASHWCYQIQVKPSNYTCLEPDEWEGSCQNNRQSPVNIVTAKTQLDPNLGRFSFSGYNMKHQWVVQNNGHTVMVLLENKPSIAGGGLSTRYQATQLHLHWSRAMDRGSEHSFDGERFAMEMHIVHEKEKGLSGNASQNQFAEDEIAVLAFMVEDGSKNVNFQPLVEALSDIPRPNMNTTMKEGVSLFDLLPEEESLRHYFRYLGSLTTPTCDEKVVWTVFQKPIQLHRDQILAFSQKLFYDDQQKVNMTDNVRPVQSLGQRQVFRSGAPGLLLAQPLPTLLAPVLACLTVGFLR
Description: Inhibition of bovine carbonic anhydrase IV from bovine lung microsomes

[3] = target: Carbonic anhydrase 1 (Homo sapiens, UniProt P00915)
Sequence of Carbonic anhydrase 1 (P00915 whole entry): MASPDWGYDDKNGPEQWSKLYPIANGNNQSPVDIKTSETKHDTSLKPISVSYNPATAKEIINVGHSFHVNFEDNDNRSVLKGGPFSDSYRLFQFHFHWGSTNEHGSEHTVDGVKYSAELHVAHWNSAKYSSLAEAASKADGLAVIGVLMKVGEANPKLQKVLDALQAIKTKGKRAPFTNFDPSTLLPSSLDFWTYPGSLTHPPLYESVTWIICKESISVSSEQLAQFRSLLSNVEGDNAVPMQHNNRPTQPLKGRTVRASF
Description: Inhibition of human carbonic anhydrase I (CAI)

[4] = system: ACHN; assay: Compound was tested in vitro for its antitumor activity against renal cancer cell line ACHN (50% growth inhibition of tumor cells after 48 hr exposure ); type: functional; conditions: Homo sapiens
[5] = system: SK-MEL-2; assay: Compound was tested in vitro for its antitumor activity against melanoma cell line SK-MEL-2 (50% growth inhibition of tumor cells after 48 hr exposure ); type: functional; conditions: Homo sapiens, SK-MEL-2, 48 h
[6] = system: PC-3; assay: Compound was tested in vitro for its antitumor activity against prostate cancer cell line PC-3 (50% growth inhibition of tumor cells after 48 hr exposure ); type: functional; conditions: Homo sapiens, PC-3, 48 h
[7] = system: COLO 205; assay: Compound was tested in vitro for its antitumor activity against colon cancer cell line COLO-205 (50% growth inhibition of tumor cells after 48 hr exposure ); type: functional; conditions: Homo sapiens, COLO 205, 48 h
[8] = system: SR; assay: Compound was tested in vitro for its antitumor activity against leukemia cell line SR (50% growth inhibition of tumor cells after 48 hr exposure ); type: functional; conditions: Homo sapiens
[9] = system: IGROV-1; assay: Compound was tested in vitro for its antitumor activity against ovarian cancer cell line IGROVI (50% growth inhibition of tumor cells after 48 hr exposure ); type: functional; conditions: Homo sapiens, IGROV-1, 48 h
[10] = system: A549; assay: Compound was tested in vitro for its antitumor activity against non-small cell lung cancer cell line A549/ATCC(50% growth inhibition of tumor cells after 48 hr exposure ); type: functional; conditions: Homo sapiens, A549, 48 h
[11] = system: OVCAR-4; assay: Compound was tested in vitro for its antitumor activity against ovarian cancer cell line OVCAR-4 (50% growth inhibition of tumor cells after 48 hr exposure ); type: functional; conditions: Homo sapiens, OVCAR-4, 48 h
[12] = system: HCT-15; assay: Compound was tested in vitro for its antitumor activity against colon cancer cell line HCT-15 (50% growth inhibition of tumor cells after 48 hr exposure ); type: functional; conditions: Homo sapiens, HCT-15, 48 h
[13] = system: SF-295; assay: Compound was tested in vitro for its antitumor activity against CNS cancer cell line SF-295 (50% growth inhibition of tumor cells after 48 hr exposure ); type: functional; conditions: Homo sapiens, SF-295, 48 h
[14] = system: HL-60; assay: Compound was tested in vitro for its antitumor activity against leukemia cell line HL-60(50% growth inhibition of tumor cells after 48 hr exposure ); type: functional; conditions: Homo sapiens, HL-60, 48 h
[15] = system: DU-145; assay: Compound was tested in vitro for its antitumor activity against prostate cancer cell line DU-145 (50% growth inhibition of tumor cells after 48 hr exposure ); type: functional; conditions: Homo sapiens, DU-145, 48 h
[16] = system: NCI-H522; assay: Compound was tested in vitro for its antitumor activity against non-small cell lung cancer cell line NCI-H522 (50% growth inhibition of tumor cells after 48 hr exposure ); type: functional; conditions: Homo sapiens, NCI-H522, 48 h
[17] = system: M14; assay: Compound was tested in vitro for its antitumor activity against melanoma cell line M14 (50% growth inhibition of tumor cells after 48 hr exposure ); type: functional; conditions: Homo sapiens, M14, 48 h
[18] = system: LOX IMVI; assay: Compound was tested in vitro for its antitumor activity against melanoma cell line LOX IMVI (50% growth inhibition of tumor cells after 48 hr exposure ); type: functional; conditions: Homo sapiens
[19] = system: MDA-N; assay: Compound was tested in vitro for its antitumor activity against breast cancer cell line MDA-N (50% growth inhibition of tumor cells after 48 hr exposure ); type: functional; conditions: Homo sapiens
[20] = system: HOP-62; assay: Compound was tested in vitro for its antitumor activity against non-small cell lung cancer cell line HOP-62(50% growth inhibition of tumor cells after 48 hr exposure ); type: functional; conditions: Homo sapiens, HOP-62, 48 h
[21] = system: SF-268; assay: Compound was tested in vitro for its antitumor activity against CNS cancer cell line SF-268 (50% growth inhibition of tumor cells after 48 hr exposure ); type: functional; conditions: Homo sapiens, SF-268, 48 h
[22] = system: CAKI-1; assay: Compound was tested in vitro for its antitumor activity against renal cancer cell line CAKI-I (50% growth inhibition of tumor cells after 48 hr exposure ); type: functional; conditions: Homo sapiens, CAKI-1, 48 h
[23] = system: MOLT-4; assay: Compound was tested in vitro for its antitumor activity against leukemia cell line MOLT-4 (50% growth inhibition of tumor cells after 48 hr exposure ); type: functional; conditions: Homo sapiens, MOLT-4, 48 h
[24] = system: MCF7; assay: Compound was tested in vitro for its antitumor activity against breast cancer cell line MCF-7 (50% growth inhibition of tumor cells after 48 hr exposure ); type: functional; conditions: Homo sapiens, MCF7, 48 h
[25] = system: 786-0; assay: Compound was tested in vitro for its antitumor activity against renal cancer cell line […] (50% growth inhibition of tumor cells after 48 hr exposure ); type: functional; conditions: Homo sapiens, 786-0, 48 h

For `NS(=O)(=O)c1ccc(NSC(=S)N2CCOCC2)c(Cl)c1`, the pKi [1] was 7.40, the pKi [2] was 7.03 and the pKi [3] was 6.10.

In the case of `NS(=O)(=O)c1ccc(NSC(=S)N2CCOCC2)cc1`, the GI50 [4] was 31000 nM, the GI50 [5] was 31000 nM and the GI50 [6] was 24000 nM. For the same compound, the GI50 [7] was 32000 nM, the GI50 [8] was 200 nM and the GI50 [9] was 70000 nM. It also gave a GI50 [10] of 46000 nM, a pKi [1] of 7.44 and a GI50 [11] greater than 100000 nM. The GI50 [12] was 68000 nM, the GI50 [13] was 44000 nM and the pKi [2] was 7.00. The GI50 [14] was 86 nM, the GI50 [15] was 80000 nM and the GI50 [16] was 420 nM. For the same compound, the GI50 [17] was 14000 nM, the pKi [3] was 5.05 and the GI50 [18] was 34000 nM. The GI50 [19] was 61000 nM, the GI50 [20] was 78000 nM and the GI50 [21] was 58000 nM. The GI50 [22] was 30000 nM, the GI50 [23] was 10000 nM and the GI50 [24] was 33 nM. The GI50 [25] was 12000 nM.

For `Cn1nc(S(N)(=O)=O)s/c1=N/SC(=S)N1CCOCC1`, the pKi [1] was 8.22, the pKi [2] was 7.59 and the pKi [3] was 6.70.

`NS(=O)(=O)c1nnc(NS(=O)(=O)c2ccc(NSC(=S)N3CCOCC3)cc2)s1` gave a pKi [1] of 8.85, a pKi [2] of 8.40 and a pKi [3] of 8.30.

Compound `NS(=O)(=O)c1cc(S(N)(=O)=O)c(NSC(=S)N2CCOCC2)c(Cl)c1Cl` has a pKi [1] of 7.74, a pKi [2] of 7.31 and a pKi [3] of 6.30.

`CCN(C)C(=S)SNc1ccc(S(N)(=O)=O)cc1` gave a pKi [1] of 7.32, a pKi [2] of 6.85 and a pKi [3] of 4.82.

Work on `NS(=O)(=O)c1ccc(CCNSC(=S)N2CCOCC2)cc1` yielded a GI50 [4] of 15000 nM, a GI50 [5] of 5000 nM and a GI50 [6] of 11000 nM. For the same compound, the GI50 [7] was 21000 nM, the GI50 [8] was less than 10 nM and the GI50 [9] was 90 nM. For the same compound, the GI50 [10] was 11000 nM, the pKi [1] was 8.10 and the GI50 [11] was 61000 nM. The GI50 [12] was greater than 100000 nM, the GI50 [13] was greater than 100000 nM and the pKi [2] was 7.62. The GI50 [14] was 70 nM, the GI50 [15] was 10000 nM and the GI50 [16] was 75 nM. It also gave a GI50 [17] of 8000 nM, a pKi [3] of 6.44 and a GI50 [18] of 5000 nM. It also gave a GI50 [19] of 13000 nM, a GI50 [20] of 62000 nM and a GI50 [21] of 90000 nM. The GI50 [22] was 9000 nM, the GI50 [23] was 54000 nM and the GI50 [24] was 26 nM. For the same compound, the GI50 [25] was 11000 nM.

`NS(=O)(=O)c1ccc(NNSC(=S)N2CCOCC2)cc1` showed a pKi [1] of 6.10, a pKi [2] of 6.19 and a pKi [3] of 4.62.

Compound `CCN(SC(=S)N1CCOCC1)C1CC(C)S(=O)(=O)c2sc(S(N)(=O)=O)cc21` (stereo not given) has a pKi [1] of 8.22, a pKi [2] of 7.66 and a pKi [3] of less than 4.30.

Compound `CCN(C)C(=S)SNCCc1ccc(S(N)(=O)=O)cc1` has a pKi [1] of 7.96, a pKi [2] of 7.52 and a pKi [3] of 6.20.

Work on `NS(=O)(=O)c1ccc(NSC(=S)N2CCOCC2)c(F)c1` yielded a pKi [1] of 7.48, a pKi [2] of 6.92 and a pKi [3] of 6.12.

`NS(=O)(=O)c1cccc(NSC(=S)N2CCOCC2)c1` showed a pKi [1] of 6.82, a pKi [2] of 6.54 and a pKi [3] of 5.00.

Work on `NS(=O)(=O)c1ccc(NSC(=S)N2CCOCC2)c(Br)c1` yielded a pKi [1] of 7.32, a pKi [2] of 7.02 and a pKi [3] of 5.62.

For `NS(=O)(=O)c1nnc(NSC(=S)N2CCOCC2)s1`, the pKi [1] was 8.22, the pKi [2] was 7.60 and the pKi [3] was 6.62.

In the case of `Cn1nc(S(N)(=O)=O)s/c1=N/S(=O)(=O)c1ccc(NSC(=S)N2CCOCC2)cc1`, the pKi [1] was 9.30, the pKi [2] was 8.89 and the pKi [3] was 8.70.

Compound `NS(=O)(=O)c1cccc(NS(=O)(=O)c2ccc(NSC(=S)N3CCOCC3)cc2)c1` has a pKi [1] of 8.15, a pKi [2] of 8.00 and a pKi [3] of 7.51.

Work on `NS(=O)(=O)c1nnc(NC(=O)CCNSC(=S)N2CCOCC2)s1` yielded a pKi [1] of 8.70, a pKi [2] of 7.68 and a pKi [3] of 6.98.

Work on `NS(=O)(=O)c1cc(S(N)(=O)=O)c(NSC(=S)N2CCOCC2)cc1Cl` yielded a pKi [1] of 7.82, a pKi [2] of 7.05 and a pKi [3] of 6.25.

`NS(=O)(=O)c1ccc(CNSC(=S)N2CCOCC2)cc1` was tested, and the GI50 [4] was 15000 nM, the GI50 [5] was 12000 nM and the GI50 [6] was 12000 nM. For the same compound, the GI50 [7] was 30000 nM, the GI50 [8] was 150 nM and the GI50 [9] was 52000 nM. The GI50 [10] was 38000 nM, the pKi [1] was 8.00 and the GI50 [11] was greater than 100000 nM. For the same compound, the GI50 [12] was 24000 nM, the GI50 [13] was 5400 nM and the pKi [2] was 7.46. The GI50 [14] was 90 nM, the GI50 [15] was 13000 nM and the GI50 [16] was 19 nM. The GI50 [17] was 10000 nM, the pKi [3] was 6.21 and the GI50 [18] was 12000 nM. The GI50 [19] was 15000 nM, the GI50 [20] was 15000 nM and the GI50 [21] was 16000 nM. It also gave a GI50 [22] of 17000 nM, a GI50 [23] of 9000 nM and a GI50 [24] of 30 nM. The GI50 [25] was 10000 nM.

With `NS(=O)(=O)c1ccccc1NSC(=S)N1CCOCC1` the pKi [1] was 6.11, the pKi [2] was 6.30 and the pKi [3] was 4.94.

Work on `CCN(C)C(=S)SNCc1ccc(S(N)(=O)=O)cc1` yielded a pKi [1] of 7.89, a pKi [2] of 7.39 and a pKi [3] of 6.02.

For `NS(=O)(=O)c1ccc(NSC(=S)N2CCOCC2)c(I)c1`, the pKi [1] was 7.26, the pKi [2] was 6.77 and the pKi [3] was 5.52.

For `NS(=O)(=O)c1ccc(NS(=O)(=O)c2ccc(NSC(=S)N3CCOCC3)cc2)cc1`, the pKi [1] was 8.52, the pKi [2] was 8.00 and the pKi [3] was 7.52.
